Consider one molecule from patent US20230034978A1, “PROCESS FOR MEASURING EFFICACY OF PAIN THERAPY” (priority 2021, published 2023).

Test [1] relates to CMi fibers (axon flare) in rhesus monkeys. In words: DLss induced axon flare before and after intradermal lidocaine injection. It is filed as in vivo. The note with it: intradermal 2.0% lidocaine injection; four rhesus monkeys; saline subdermal injection as control. The text has this: Lidocaine is a wide spectrum sodium channel blocker that is used clinically as a dermal patch or intradermal injection 97-99 for treatment of peripheral neuropathic pain 3, 99. […] C and Aδ fibers are differentially affected by lidocaine treatment 99-101, and suppression of repetitive CMi activation that mimics spontaneous activity is a potent consequence of lidocaine treatment 100. Flare response in rhesus monkeys, a primate animal model for human neuropathic pain generation and nociceptor dynamics was similar to that observed in healthy subjects (FIG. 2). A total of four monkeys were tested. DLss induced flare was evaluated before and after intradermal 2.0% lidocaine injection and saline subdermal injection was used as a control. […]
• Diode laser for selective stimulation (DLss) testing of C:Aδ ratio. […] Skin temperature on the dorsal foot will be monitored and maintained at 32-33° C. using periodic heating pad warming. • Laser detection and pain thresholds (separately for Aδ and C fiber stimulation) were quantified using the “method of levels” on a 6×6 cm stimulus grid drawn on the foot dorsum, shifting location and using a series of ascending stimulations starting from sub-detection intensity, increasing by fixed increments with the highest stimulation determined by participant reporting a painful sensation with intensity between 30 and 40 on the 0-100 VAS. […]

The test system of test [2] is participants with peripheral ongoing neuropathic pain (p-ONP) / peripheral neuropathy. Kind of test: Lidocaine patch cross-over trial (Example 2A): pain VAS and DLss C:Aδ ratio. It is filed as in vivo, human. Particulars: lidocaine patch (5%) or placebo patch, 7 day treatment, p<0.01. Here is the method:
70 p-ONP participants to with mean pain VAS >40 mm who undergo baseline DLss, and pain measures. Response to VAS was compared to change in C:Aδ ratio following treatment with peripherally active lidocaine patch (5%), or placebo patch using a 7 day treatment cross-over design with 14 day washout between treatment arms.
• Diode laser for selective stimulation (DLss) testing of C:Aδ ratio. Detection and pain thresholds for fiber-selective laser stimulation was performed with Lass-10M, as previously described (patents U.S. Pat. No. 7,402,167B2 and U.S. Pat. No. 8,029,553B2). The foot dorsum was shaved to limit light absorption and overheating. Skin temperature on the dorsal foot will be monitored and maintained at 32-33° C. using periodic heating pad warming. • Laser detection and pain thresholds (separately for Aδ and C fiber stimulation) were quantified using the “method of levels” on a 6×6 cm stimulus grid drawn on the foot dorsum, shifting location and using a series of ascending stimulations starting from sub-detection intensity, increasing by fixed increments with the highest stimulation determined by participant reporting a painful sensation with intensity between 30 and 40 on the 0-100 VAS. […] Blood perfusion was recorded by Speckle Imaging (PeriCam PSI System, Perimed, Sweden), following DLss stimulus using the C fiber protocol above. […]

A further test concerns peripheral ONP. Particulars: lidocaine injection; reference 12; cited from earlier work.

Molecules are shown by their SMILES.

Consider `CCN(CC)CC(=O)Nc1c(C)cccc1C` [lidocaine], for which, in test [1], the “axon flare area after injection compared to saline” value is “markedly reduced”. Further, in test [2], the “Change in C:Aδ ratio, lidocaine versus placebo treatment groups” value is listed as “distinguish lidocaine from placebo treatment groups”. In addition, the “block of peripheral ONP” value in the test on peripheral ONP is listed as “completely block”.
